The kinase profiling compilation of Christmann-Franck et al. (2016)

Key:
Experiment in all cases: KINOMEscan competition binding
Settings in all cases: compound 10.0 µM
INSR (human) = INSR (human) (UniProt P06213)
CAMK2G (human) = CAMK2G (human) (UniProt Q13555)
ADCK3 (human) = ADCK3 (human) (UniProt Q8NI60)
RPS6KA5 KD2 (human) = RPS6KA5 KD2 (human) (UniProt O75582)
STK11 (human) = STK11 (human) (UniProt Q15831)
ROCK2 (human) = ROCK2 (human) (UniProt O75116)
DDR2 (human) = DDR2 (human) (UniProt Q16832)
PLK3 (human) = PLK3 (human) (UniProt Q9H4B4)
Sequence of PLK3 (human) (Q9H4B4 whole entry, looked up): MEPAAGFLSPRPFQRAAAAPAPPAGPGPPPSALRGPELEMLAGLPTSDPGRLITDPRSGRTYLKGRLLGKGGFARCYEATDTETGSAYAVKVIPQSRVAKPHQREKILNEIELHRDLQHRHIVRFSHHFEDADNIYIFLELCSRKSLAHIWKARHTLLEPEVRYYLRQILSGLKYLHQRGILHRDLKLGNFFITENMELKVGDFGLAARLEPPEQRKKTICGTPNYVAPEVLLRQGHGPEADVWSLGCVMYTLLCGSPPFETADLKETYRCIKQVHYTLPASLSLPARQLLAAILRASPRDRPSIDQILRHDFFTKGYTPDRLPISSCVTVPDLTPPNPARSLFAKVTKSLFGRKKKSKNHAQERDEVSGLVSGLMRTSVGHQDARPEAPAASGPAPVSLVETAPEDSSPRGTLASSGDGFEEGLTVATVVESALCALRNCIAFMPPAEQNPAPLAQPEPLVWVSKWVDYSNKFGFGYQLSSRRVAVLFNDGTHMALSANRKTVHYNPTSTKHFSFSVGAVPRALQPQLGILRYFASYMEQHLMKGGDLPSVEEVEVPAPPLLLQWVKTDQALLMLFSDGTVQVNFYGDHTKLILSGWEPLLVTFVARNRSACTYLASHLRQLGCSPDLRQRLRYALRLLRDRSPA

BMPR1A (human) = BMPR1A (human) (UniProt P36894)
MAP3K9 (human) = MAP3K9 (human) (UniProt P80192)
PHKG2 (human) = PHKG2 (human) (UniProt P15735)
INSRR (human) = INSRR (human) (UniProt P14616)
EPHA4 (human) = EPHA4 (human) (UniProt P54764)
MAP2K3 (human) = MAP2K3 (human) (UniProt P46734)
MAP3K7 (human) = MAP3K7 (human) (UniProt O43318)
BRSK1 (human) = BRSK1 (human) (UniProt Q8TDC3)
HIPK1 (human) = HIPK1 (human) (UniProt Q86Z02)
PAK7 (human) = PAK7 (human) (UniProt Q9P286)
FYN (human) = FYN (human) (UniProt P06241)
MAPK4 (human) = MAPK4 (human) (UniProt P31152)
DAPK2 (human) = DAPK2 (human) (UniProt Q9UIK4)
FRK (human) = FRK (human) (UniProt P42685)
CLK3 (human) = CLK3 (human) (UniProt P49761)
CAMK2A (human) = CAMK2A (human) (UniProt Q9UQM7)
MAPK7 (human) = MAPK7 (human) (UniProt Q13164)
MAPK14 (human) = MAPK14 (human) (UniProt Q16539)
Sequence of MAPK14 (human) (Q16539 whole entry, looked up): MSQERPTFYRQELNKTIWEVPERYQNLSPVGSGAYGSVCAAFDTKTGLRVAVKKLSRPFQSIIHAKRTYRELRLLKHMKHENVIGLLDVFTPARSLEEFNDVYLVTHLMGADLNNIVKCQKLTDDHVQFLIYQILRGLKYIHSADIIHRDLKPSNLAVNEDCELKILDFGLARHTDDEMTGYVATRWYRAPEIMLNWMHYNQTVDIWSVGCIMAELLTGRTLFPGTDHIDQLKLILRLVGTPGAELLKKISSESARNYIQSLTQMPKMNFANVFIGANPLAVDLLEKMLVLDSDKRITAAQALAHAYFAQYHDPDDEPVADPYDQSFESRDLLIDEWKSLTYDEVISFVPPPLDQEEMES

TGFBR2 (human) = TGFBR2 (human) (UniProt P37173)
ACVR2B (human) = ACVR2B (human) (UniProt Q13705)
EPHA7 (human) = EPHA7 (human) (UniProt Q15375)
PRKACA (human) = PRKACA (human) (UniProt P17612)
FLT3 (human) = FLT3 (human) (UniProt P36888)
TLK1 (human) = TLK1 (human) (UniProt Q9UKI8)
Sequence of TLK1 (human) (Q9UKI8 whole entry, looked up): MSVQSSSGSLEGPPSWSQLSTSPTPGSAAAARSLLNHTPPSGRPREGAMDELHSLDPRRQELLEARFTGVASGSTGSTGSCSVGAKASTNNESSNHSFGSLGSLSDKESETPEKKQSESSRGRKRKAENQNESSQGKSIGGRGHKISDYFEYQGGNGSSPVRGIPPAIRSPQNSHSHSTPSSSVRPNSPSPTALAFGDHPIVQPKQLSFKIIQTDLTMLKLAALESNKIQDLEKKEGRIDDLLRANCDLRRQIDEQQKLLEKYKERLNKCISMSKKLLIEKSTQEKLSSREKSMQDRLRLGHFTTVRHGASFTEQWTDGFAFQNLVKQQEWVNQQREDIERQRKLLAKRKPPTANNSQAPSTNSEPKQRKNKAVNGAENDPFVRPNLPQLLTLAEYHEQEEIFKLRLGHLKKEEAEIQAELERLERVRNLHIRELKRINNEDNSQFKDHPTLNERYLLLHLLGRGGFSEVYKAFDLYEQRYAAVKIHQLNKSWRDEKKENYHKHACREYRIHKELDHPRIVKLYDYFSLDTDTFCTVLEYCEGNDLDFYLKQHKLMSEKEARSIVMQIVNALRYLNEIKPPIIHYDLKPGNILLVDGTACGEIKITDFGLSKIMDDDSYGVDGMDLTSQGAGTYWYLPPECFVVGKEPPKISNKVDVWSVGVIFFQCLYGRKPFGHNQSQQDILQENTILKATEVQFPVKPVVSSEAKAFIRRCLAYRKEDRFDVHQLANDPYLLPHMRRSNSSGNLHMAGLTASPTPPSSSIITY

SIK2 (human) = SIK2 (human) (UniProt Q9H0K1)
LIMK2 (human) = LIMK2 (human) (UniProt P53671)
DCLK1 (human) = DCLK1 (human) (UniProt O15075)
Sequence of DCLK1 (human) (O15075 whole entry, looked up): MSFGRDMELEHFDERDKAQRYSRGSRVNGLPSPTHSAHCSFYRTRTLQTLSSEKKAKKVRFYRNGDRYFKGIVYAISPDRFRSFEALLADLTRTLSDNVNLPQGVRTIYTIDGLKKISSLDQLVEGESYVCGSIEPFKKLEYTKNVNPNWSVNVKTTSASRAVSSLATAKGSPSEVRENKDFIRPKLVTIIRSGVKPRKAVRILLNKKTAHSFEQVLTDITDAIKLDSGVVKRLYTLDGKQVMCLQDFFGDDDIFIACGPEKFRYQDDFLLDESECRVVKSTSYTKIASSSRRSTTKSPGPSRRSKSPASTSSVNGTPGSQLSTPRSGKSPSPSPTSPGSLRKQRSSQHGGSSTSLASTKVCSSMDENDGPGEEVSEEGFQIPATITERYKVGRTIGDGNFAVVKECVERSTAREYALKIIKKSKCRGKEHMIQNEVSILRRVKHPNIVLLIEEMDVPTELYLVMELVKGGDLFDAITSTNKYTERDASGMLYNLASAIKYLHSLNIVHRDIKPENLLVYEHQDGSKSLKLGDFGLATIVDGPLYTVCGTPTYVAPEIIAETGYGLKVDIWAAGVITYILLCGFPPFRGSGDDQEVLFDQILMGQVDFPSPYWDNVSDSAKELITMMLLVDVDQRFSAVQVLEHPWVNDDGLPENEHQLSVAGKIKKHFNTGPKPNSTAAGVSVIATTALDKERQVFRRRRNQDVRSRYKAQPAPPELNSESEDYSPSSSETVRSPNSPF

CSF1R (human) = CSF1R (human) (UniProt P07333)
Sequence of CSF1R (human) (P07333 whole entry, looked up): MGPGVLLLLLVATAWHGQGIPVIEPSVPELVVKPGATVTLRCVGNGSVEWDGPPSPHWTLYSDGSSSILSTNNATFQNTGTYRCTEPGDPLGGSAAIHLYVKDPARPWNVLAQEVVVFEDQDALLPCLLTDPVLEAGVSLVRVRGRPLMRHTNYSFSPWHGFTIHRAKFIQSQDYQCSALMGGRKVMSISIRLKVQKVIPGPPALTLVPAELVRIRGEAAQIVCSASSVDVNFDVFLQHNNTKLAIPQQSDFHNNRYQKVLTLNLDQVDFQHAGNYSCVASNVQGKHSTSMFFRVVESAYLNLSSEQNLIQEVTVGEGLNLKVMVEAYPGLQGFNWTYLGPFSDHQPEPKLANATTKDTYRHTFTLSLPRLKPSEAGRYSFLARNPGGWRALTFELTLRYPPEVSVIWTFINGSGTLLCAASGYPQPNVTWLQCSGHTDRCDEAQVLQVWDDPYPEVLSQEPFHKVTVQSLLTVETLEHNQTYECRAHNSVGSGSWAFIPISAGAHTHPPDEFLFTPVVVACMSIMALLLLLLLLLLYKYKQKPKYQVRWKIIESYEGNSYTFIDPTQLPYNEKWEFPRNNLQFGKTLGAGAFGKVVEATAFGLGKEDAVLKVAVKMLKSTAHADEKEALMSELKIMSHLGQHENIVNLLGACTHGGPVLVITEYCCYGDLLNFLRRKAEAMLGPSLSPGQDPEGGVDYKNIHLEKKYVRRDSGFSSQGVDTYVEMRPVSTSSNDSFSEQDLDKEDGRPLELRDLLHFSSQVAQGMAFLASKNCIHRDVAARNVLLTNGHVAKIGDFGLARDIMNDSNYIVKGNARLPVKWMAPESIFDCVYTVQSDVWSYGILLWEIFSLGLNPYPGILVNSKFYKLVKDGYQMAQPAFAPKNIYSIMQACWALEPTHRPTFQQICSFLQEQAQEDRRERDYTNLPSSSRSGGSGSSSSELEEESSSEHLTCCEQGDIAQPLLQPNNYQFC

CSNK1A1L (human) = CSNK1A1L (human) (UniProt Q8N752)
ULK2 (human) = ULK2 (human) (UniProt Q8IYT8)
Sequence of ULK2 (human) (Q8IYT8 whole entry, looked up): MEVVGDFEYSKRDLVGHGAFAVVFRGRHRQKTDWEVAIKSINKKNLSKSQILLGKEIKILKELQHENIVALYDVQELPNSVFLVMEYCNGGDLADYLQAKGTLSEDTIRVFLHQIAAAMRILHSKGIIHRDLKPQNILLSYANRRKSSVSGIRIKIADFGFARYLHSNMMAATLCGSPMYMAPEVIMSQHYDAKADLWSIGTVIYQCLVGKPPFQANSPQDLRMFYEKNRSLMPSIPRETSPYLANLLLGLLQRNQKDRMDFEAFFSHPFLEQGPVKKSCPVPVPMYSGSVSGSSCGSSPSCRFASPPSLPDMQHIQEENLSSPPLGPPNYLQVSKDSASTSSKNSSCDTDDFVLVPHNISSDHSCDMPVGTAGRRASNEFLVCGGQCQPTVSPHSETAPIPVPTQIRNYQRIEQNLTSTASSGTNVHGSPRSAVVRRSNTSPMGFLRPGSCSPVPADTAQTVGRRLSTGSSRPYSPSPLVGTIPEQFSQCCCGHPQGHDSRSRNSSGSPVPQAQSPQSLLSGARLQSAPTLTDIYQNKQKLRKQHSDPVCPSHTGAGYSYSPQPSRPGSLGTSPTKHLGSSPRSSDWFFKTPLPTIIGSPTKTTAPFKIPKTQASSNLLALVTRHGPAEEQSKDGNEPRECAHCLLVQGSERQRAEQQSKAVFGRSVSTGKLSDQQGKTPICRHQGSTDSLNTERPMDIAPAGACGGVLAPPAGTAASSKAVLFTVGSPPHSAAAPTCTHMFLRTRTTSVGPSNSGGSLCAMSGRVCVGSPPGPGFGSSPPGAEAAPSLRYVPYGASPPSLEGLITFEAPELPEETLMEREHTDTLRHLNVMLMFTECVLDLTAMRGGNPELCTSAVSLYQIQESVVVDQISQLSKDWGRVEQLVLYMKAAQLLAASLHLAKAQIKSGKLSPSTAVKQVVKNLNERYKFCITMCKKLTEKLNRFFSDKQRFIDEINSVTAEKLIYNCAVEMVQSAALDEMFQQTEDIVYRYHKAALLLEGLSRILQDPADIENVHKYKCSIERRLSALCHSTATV

AURKA (human) = AURKA (human) (UniProt O14965)
PKMYT1 (human) = PKMYT1 (human) (UniProt Q99640)

Sequence of CAMK2G (human) (Q13555 whole entry, looked up): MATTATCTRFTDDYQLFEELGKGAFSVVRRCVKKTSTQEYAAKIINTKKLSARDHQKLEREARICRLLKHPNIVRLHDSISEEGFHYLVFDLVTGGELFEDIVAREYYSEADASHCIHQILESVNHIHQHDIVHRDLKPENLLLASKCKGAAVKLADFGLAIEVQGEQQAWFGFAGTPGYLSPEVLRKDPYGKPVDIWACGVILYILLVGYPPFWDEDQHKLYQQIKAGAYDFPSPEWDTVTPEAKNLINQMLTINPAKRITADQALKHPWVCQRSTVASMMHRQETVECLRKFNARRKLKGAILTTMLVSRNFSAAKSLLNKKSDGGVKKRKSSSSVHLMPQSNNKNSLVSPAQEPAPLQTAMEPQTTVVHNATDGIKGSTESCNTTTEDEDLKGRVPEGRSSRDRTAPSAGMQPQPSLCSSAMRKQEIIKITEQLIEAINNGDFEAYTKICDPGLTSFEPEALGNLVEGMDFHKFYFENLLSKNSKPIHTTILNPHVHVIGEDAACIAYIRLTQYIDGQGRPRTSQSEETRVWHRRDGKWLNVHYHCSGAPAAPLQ

| Structure (SMILES) | kinase still bound, per cent of control (INSR (human)) [%] | kinase still bound, per cent of control (CAMK2G (human)) [%] | kinase still bound, per cent of control (ADCK3 (human)) [%] | kinase still bound, per cent of control (RPS6KA5 KD2 (human)) [%] | kinase still bound, per cent of control (STK11 (human)) [%] | kinase still bound, per cent of control (ROCK2 (human)) [%] | kinase still bound, per cent of control (DDR2 (human)) [%] | kinase still bound, per cent of control (PLK3 (human)) [%] | kinase still bound, per cent of control (BMPR1A (human)) [%] | kinase still bound, per cent of control (MAP3K9 (human)) [%] | kinase still bound, per cent of control (PHKG2 (human)) [%] | kinase still bound, per cent of control (INSRR (human)) [%] | kinase still bound, per cent of control (EPHA4 (human)) [%] | kinase still bound, per cent of control (MAP2K3 (human)) [%] | kinase still bound, per cent of control (MAP3K7 (human)) [%] | kinase still bound, per cent of control (BRSK1 (human)) [%] | kinase still bound, per cent of control (HIPK1 (human)) [%] | kinase still bound, per cent of control (PAK7 (human)) [%] | kinase still bound, per cent of control (FYN (human)) [%] | kinase still bound, per cent of control (MAPK4 (human)) [%] | further results |
| --- | --- | --- | --- | --- | --- | --- | --- | --- | --- | --- | --- | --- | --- | --- | --- | --- | --- | --- | --- | --- | --- |
| O=C(NC1CC1)c1cccc(-c2ccc3c(NC(=O)C4CC4)n[nH]c3c2)c1 | 78 | 89 | 78 | 100 | 45 | 53 | 90 | 100 | 76 | 66 | 84 | 95 | 100 | 33 | 56 | 64 | 28 | 67 | 79 | 100 | kinase still bound, per cent of control (DAPK2 (human)): 87%; kinase still bound, per cent of control (FRK (human)): 89%; kinase still bound, per cent of control (CLK3 (human)): 80%; kinase still bound, per cent of control (CAMK2A (human)): 88%; kinase still bound, per cent of control (MAPK7 (human)): 93%; kinase still bound, per cent of control (MAPK14 (human)): 2%; kinase still bound, per cent of control (TGFBR2 (human)): 100%; kinase still bound, per cent of control (ACVR2B (human)): 84%; kinase still bound, per cent of control (EPHA7 (human)): 96%; kinase still bound, per cent of control (PRKACA (human)): 100%; kinase still bound, per cent of control (FLT3 (human)): 63%; kinase still bound, per cent of control (TLK1 (human)): 51%; kinase still bound, per cent of control (SIK2 (human)): 91%; kinase still bound, per cent of control (LIMK2 (human)): 98%; kinase still bound, per cent of control (DCLK1 (human)): 96%; kinase still bound, per cent of control (CSF1R (human)): 70%; kinase still bound, per cent of control (CSNK1A1L (human)): 100%; kinase still bound, per cent of control (ULK2 (human)): 77%; kinase still bound, per cent of control (AURKA (human)): 86%; kinase still bound, per cent of control (PKMYT1 (human)): 77% |
| C=CC(=O)Nc1cccc(Nc2nc(N[C@H]3CC[C@H](N(C)C)CC3)nc3c2ncn3C(C)C)c1 | 69 | 76 | 87 | 95 | 66 | 10 | 100 | 100 | 100 | 17 | 44 | 64 | 64 | 77 | 21 | 88 | 25 | 17 | 23 | 100 | kinase still bound, per cent of control (DAPK2 (human)): 37%; kinase still bound, per cent of control (FRK (human)): 53%; kinase still bound, per cent of control (CLK3 (human)): 9%; kinase still bound, per cent of control (CAMK2A (human)): 34%; kinase still bound, per cent of control (MAPK7 (human)): 100%; kinase still bound, per cent of control (MAPK14 (human)): 95%; kinase still bound, per cent of control (TGFBR2 (human)): 100%; kinase still bound, per cent of control (ACVR2B (human)): 91%; kinase still bound, per cent of control (EPHA7 (human)): 100%; kinase still bound, per cent of control (PRKACA (human)): 100%; kinase still bound, per cent of control (FLT3 (human)): 2.6%; kinase still bound, per cent of control (TLK1 (human)): 100%; kinase still bound, per cent of control (SIK2 (human)): 69%; kinase still bound, per cent of control (LIMK2 (human)): 100%; kinase still bound, per cent of control (DCLK1 (human)): 30%; kinase still bound, per cent of control (CSF1R (human)): 52%; kinase still bound, per cent of control (CSNK1A1L (human)): 1.5%; kinase still bound, per cent of control (ULK2 (human)): 2%; kinase still bound, per cent of control (AURKA (human)): 100%; kinase still bound, per cent of control (PKMYT1 (human)): 93% |
| COc1cc(C(=O)NC2CCN(C)CC2)ccc1Nc1ncc2c(n1)N(C1CCCC1)C(C)CC(=O)N2C (stereo not given) | 100 | 34 | 100 | 100 | 100 | 100 | 100 | 0 | 100 | 100 | 100 | 26 | 100 | 100 | 100 | 100 | 100 | 100 | 100 | 100 | kinase still bound, per cent of control (DAPK2 (human)): 100%; kinase still bound, per cent of control (FRK (human)): 100%; kinase still bound, per cent of control (CLK3 (human)): 100%; kinase still bound, per cent of control (CAMK2A (human)): 21%; kinase still bound, per cent of control (MAPK7 (human)): 100%; kinase still bound, per cent of control (MAPK14 (human)): 100%; kinase still bound, per cent of control (TGFBR2 (human)): 100%; kinase still bound, per cent of control (ACVR2B (human)): 100%; kinase still bound, per cent of control (EPHA7 (human)): 100%; kinase still bound, per cent of control (PRKACA (human)): 100%; kinase still bound, per cent of control (FLT3 (human)): 100%; kinase still bound, per cent of control (TLK1 (human)): 100%; kinase still bound, per cent of control (SIK2 (human)): 100%; kinase still bound, per cent of control (LIMK2 (human)): 100%; kinase still bound, per cent of control (DCLK1 (human)): 4%; kinase still bound, per cent of control (CSF1R (human)): 100%; kinase still bound, per cent of control (CSNK1A1L (human)): 100%; kinase still bound, per cent of control (ULK2 (human)): 100%; kinase still bound, per cent of control (AURKA (human)): 100%; kinase still bound, per cent of control (PKMYT1 (human)): 100% |
